Drawing on ChEMBL document CHEMBL5291721, “A preclinical secondary pharmacology resource illuminates target-adverse drug reaction associations of marketed drugs” (Nat Commun, 2023), this text covers AC50 for eight compounds.

Each structure is given as a SMILES string. “And” between values parts separate entries of the source, which are not always exact repeats. Equal entries are not always repeated.

The target of assay [1] is T1, Adenosine receptor A3 (Homo sapiens, UniProt P0DMS8).
T1 sequence (P0DMS8 whole entry): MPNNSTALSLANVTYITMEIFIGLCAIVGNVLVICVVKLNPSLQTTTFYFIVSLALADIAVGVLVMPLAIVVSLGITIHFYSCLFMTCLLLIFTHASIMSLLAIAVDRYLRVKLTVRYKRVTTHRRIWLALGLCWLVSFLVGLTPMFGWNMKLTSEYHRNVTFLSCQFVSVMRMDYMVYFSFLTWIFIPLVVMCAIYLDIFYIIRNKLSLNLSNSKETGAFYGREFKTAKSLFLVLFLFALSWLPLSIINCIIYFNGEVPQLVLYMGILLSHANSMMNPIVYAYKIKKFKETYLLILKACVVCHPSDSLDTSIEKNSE

Assay [2] concerns the target Beta-1 adrenergic receptor (Homo sapiens, UniProt P08588). In kind it is functional.
Assay [3] has as its target T2, Cholecystokinin receptor type A (Homo sapiens, UniProt P32238).
T2 sequence (P32238 whole entry): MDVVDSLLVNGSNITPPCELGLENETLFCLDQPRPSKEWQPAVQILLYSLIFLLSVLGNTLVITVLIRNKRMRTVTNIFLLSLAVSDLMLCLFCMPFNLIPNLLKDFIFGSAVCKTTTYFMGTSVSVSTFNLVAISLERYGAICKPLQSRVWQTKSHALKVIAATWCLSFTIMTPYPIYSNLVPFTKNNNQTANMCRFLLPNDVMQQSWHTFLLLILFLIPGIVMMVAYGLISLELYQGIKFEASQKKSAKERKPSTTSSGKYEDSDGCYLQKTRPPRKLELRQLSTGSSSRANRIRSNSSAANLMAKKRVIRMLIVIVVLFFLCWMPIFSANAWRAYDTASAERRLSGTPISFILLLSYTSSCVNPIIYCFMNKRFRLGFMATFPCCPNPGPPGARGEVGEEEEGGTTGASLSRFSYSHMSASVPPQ

Assay [4] addresses Cannabinoid receptor 1 (Homo sapiens, UniProt P21554). In kind it is functional, cell-based.
Assay [5] concerns the target T3, 5-hydroxytryptamine receptor 1A (Homo sapiens, UniProt P08908).
T3 sequence (P08908 whole entry): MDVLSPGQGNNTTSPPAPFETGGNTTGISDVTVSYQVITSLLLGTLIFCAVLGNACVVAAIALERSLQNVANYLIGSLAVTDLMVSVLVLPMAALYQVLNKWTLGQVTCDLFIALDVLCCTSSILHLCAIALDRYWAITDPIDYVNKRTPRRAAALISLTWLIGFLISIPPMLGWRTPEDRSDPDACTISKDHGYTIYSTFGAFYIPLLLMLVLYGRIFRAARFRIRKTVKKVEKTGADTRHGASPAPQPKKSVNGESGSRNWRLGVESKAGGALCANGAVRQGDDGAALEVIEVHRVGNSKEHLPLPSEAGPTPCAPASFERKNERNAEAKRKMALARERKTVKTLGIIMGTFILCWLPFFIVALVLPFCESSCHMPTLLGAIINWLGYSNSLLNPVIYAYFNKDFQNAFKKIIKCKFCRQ
In kind it is functional, cell-based.

The target of assay [6] is Motilin receptor (Homo sapiens, UniProt O43193).
Assay [7] addresses 3',5'-cyclic-AMP phosphodiesterase 4D (Homo sapiens, UniProt Q08499). In kind it is functional.
The target in assay [8] is T4, Prostaglandin G/H synthase 1 (Rattus norvegicus, UniProt Q63921).
T4 sequence (Q63921 whole entry): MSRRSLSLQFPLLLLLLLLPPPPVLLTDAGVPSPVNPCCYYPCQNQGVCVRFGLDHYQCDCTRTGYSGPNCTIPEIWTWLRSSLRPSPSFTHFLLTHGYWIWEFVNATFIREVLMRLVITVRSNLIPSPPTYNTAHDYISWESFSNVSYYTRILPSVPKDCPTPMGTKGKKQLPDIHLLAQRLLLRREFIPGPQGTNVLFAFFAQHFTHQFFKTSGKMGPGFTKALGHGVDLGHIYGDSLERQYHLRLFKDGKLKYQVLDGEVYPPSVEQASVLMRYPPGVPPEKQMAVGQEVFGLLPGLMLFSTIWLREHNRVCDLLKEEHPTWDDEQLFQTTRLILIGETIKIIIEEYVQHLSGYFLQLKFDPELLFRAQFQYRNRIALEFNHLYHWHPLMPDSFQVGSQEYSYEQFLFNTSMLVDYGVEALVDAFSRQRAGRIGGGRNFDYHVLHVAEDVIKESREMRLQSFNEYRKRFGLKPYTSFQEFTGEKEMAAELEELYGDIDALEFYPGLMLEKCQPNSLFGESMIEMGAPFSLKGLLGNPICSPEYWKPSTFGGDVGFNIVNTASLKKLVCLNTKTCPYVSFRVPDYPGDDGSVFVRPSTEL
In kind it is functional.

The target of assay [9] is T5, Alpha-1A adrenergic receptor (Homo sapiens, UniProt P35348).
T5 sequence (P35348 whole entry): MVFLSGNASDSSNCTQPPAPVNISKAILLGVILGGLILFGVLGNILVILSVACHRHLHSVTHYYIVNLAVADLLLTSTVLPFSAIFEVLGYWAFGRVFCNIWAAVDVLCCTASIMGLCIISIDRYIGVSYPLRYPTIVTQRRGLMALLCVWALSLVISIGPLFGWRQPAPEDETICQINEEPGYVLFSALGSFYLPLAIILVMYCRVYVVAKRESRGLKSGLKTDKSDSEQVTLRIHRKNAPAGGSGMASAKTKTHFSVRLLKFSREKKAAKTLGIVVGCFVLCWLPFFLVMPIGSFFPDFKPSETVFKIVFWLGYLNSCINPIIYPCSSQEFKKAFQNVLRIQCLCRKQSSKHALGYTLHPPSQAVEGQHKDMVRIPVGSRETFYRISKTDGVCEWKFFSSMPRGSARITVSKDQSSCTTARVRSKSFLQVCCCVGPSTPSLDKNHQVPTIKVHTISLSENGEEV
In kind it is functional, cell-based.
Further: assay procedure not described here.

Chain of Motilin receptor (O43193 whole entry): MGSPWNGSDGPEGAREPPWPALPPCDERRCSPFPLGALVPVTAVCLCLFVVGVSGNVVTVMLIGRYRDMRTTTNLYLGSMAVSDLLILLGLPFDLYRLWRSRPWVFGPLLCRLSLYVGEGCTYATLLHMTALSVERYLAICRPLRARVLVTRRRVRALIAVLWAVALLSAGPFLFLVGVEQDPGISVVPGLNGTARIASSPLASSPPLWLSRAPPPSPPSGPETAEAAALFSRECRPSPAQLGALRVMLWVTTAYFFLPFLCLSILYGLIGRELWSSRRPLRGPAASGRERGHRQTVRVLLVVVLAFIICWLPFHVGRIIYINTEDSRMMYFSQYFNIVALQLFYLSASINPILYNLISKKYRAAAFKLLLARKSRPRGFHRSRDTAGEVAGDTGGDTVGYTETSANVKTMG
Chain of Beta-1 adrenergic receptor (P08588 whole entry): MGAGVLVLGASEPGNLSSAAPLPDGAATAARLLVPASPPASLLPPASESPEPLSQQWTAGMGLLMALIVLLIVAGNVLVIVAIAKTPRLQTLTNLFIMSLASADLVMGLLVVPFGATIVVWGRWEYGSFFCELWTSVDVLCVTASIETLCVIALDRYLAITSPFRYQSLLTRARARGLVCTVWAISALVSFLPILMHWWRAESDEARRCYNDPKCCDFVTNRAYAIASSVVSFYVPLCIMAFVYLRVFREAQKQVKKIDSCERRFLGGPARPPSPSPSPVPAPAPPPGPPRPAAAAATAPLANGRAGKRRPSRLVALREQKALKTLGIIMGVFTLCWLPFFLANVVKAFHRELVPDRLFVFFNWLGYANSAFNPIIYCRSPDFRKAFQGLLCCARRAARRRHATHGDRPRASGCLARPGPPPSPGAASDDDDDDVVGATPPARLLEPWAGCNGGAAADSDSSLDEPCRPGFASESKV
Chain of 3',5'-cyclic-AMP phosphodiesterase 4D (Q08499 whole entry): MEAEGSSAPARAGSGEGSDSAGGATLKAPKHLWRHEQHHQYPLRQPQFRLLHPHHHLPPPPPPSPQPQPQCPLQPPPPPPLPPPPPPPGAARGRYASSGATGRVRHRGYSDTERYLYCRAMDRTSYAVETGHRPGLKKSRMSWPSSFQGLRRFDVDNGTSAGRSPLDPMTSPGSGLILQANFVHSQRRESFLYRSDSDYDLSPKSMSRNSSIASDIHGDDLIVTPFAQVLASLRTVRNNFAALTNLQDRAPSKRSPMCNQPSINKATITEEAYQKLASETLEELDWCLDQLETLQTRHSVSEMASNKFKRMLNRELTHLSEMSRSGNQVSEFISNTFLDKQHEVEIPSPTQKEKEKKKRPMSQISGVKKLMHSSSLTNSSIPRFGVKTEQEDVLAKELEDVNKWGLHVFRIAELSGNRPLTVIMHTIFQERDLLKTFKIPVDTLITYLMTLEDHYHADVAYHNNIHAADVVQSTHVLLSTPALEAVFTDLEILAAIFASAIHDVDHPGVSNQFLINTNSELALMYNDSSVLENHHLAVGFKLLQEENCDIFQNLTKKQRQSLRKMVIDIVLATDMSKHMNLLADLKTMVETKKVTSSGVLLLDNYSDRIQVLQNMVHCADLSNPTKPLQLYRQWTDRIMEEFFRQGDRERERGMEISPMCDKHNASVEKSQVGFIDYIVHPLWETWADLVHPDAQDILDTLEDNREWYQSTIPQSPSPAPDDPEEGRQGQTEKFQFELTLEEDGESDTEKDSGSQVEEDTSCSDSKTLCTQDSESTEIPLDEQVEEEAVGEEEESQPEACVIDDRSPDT
Chain of Cannabinoid receptor 1 (P21554 whole entry): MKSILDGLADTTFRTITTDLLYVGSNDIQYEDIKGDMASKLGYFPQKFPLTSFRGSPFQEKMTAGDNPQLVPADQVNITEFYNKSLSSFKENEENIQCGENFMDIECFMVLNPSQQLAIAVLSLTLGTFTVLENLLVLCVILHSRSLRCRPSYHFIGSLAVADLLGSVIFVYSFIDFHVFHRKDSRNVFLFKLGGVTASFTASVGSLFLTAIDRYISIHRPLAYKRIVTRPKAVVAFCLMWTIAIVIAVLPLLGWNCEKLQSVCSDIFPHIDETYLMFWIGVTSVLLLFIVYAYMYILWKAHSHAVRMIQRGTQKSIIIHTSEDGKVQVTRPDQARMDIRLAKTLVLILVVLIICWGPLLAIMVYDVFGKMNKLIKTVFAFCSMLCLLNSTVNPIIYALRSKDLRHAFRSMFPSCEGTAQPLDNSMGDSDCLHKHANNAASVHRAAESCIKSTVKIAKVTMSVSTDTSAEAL

`CC(C)N(CCC(C(N)=O)(c1ccccc1)c1ccccn1)C(C)C` (configuration not stated) [DISOPYRAMIDE]: the AC50 is > 30 µM in [1]; > 30 µM in assay [2]; > 30 µM in assay [3]; > 30 µM in [4]; > 10 µM in assay [5]; > 30 µM in [6]. For the same compound, the results for the AC50 in assay [7], in [8] and in assay [9] were > 10 µM, 13.6 µM and > 30 µM, respectively.

Consider `CCN1CCN(Cc2ccc(Nc3ncc(F)c(-c4cc(F)c5nc(C)n(C(C)C)c5c4)n3)nc2)CC1` [ABEMACICLIB], for which the AC50 in assay [1], in assay [2], in [3], in assay [4], in [5] and in assay [6] was > 30 µM in each case. Moreover, the AC50 is 3.2 µM in assay [7], > 30 µM in assay [8] and > 30 µM in [9].

Turning to `CN(C)CC[C@@H](c1ccc(Cl)cc1)c1ccccn1` [DEXCHLORPHENIRAMINE], the AC50 in [1], in assay [2], in [3], in assay [4], in assay [5] and in [6] was > 30 µM in each case. Besides, the AC50 in [7] is > 10 µM; in assay [8], > 30 µM; in assay [9], > 30 µM.

Turning to `O=C1C(CC[S+]([O-])c2ccccc2)C(=O)N(c2ccccc2)N1c1ccccc1` (configuration not stated) [SULFINPYRAZONE], the AC50 in assay [1] was > 10 µM; in assay [2] it was > 10 µM; in [3], > 10 µM; in assay [4] it was > 30 µM; in [5], > 30 µM; in assay [6], > 10 µM. Further, the half-maximal activity concentration (AC50) in assay [7] was > 30 µM; in assay [8] it was > 10 µM; in assay [9], > 30 µM.

As for `C[C@H](CCC(=O)O)[C@H]1CC[C@H]2[C@@H]3[C@@H](O)C[C@@H]4C[C@H](O)CC[C@]4(C)[C@H]3CC[C@]12C` [URSODIOL], the AC50 in assay [1], in assay [2], in [3], in assay [4], in assay [5] and in assay [6] was > 30 µM throughout. Besides, the AC50 in [7], in assay [8] and in assay [9] was > 30 µM each time.

As to `CC(C)c1nc(N(C)S(C)(=O)=O)nc(-c2ccc(F)cc2)c1/C=C/[C@@H](O)C[C@@H](O)CC(=O)O` [ROSUVASTATIN], the AC50 in [1], in [2], in assay [3], in [4], in assay [5] and in [6] was > 30 µM each time. The concentration at half-maximal activity (AC50) was 4.16 µM in [7], > 30 µM in assay [8] and > 30 µM in assay [9].

Regarding `C=CC[C@@H]1/C=C(\C)C[C@H](C)C[C@H](OC)[C@H]2O[C@@](O)(C(=O)C(=O)N3CCCC[C@H]3C(=O)O[C@H](/C(C)=C/[C@@H]3CC[C@@H](O)[C@H](OC)C3)[C@H](C)[C@@H](O)CC1=O)[C@H](C)C[C@@H]2OC` [TACROLIMUS ANHYDROUS], the AC50 is 11 µM and 27.2 µM in assay [1]; > 30 µM in [2]; > 30 µM in assay [3]; > 30 µM in [4]; > 10 µM in [5]; 9.44 µM and > 10 µM in assay [6]. In addition, the AC50 in [7], in assay [8] and in assay [9] was > 30 µM each time.

Take `CO[C@H]1/C=C/O[C@@]2(C)Oc3c(C)c(O)c4c(O)c(c(/C=N/N5CCN(C)CC5)c(O)c4c3C2=O)NC(=O)/C(C)=C\C=C\[C@H](C)[C@H](O)[C@@H](C)[C@@H](O)[C@@H](C)[C@H](OC(C)=O)[C@@H]1C` [RIFAMPIN]: the AC50 was 27 µM in assay [1]; 28 µM in [2]; 17.1 µM in [3]; > 30 µM in assay [4]; > 30 µM in assay [5]; > 30 µM in assay [6]. Further, the AC50 was 13 µM in assay [7], > 30 µM in [8] and > 30 µM in assay [9].

Broadly, the AC50 is the concentration giving half of the maximal activity seen. The low end stands for activity at low concentration, the high end for activity only at high concentration.
